# Assay results taken from US20190062736A1, “IN SITU AND IN VIVO ANALYSIS OF CHROMATIN INTERACTIONS BY BIOTINYLATED DCAS9 PROTEIN” (BOARD OF REGENTS, THE UNIVERSITY OF TEXAS SYSTEM, priority 2017, published 2019).
# “Also recorded” adds a separate entry of the source.
# Columns and labels:
# [1] = tested on: human primary erythroid cells; assay: qRT-PCR of β-globin mRNAs after JQ1 treatment; type: cell-based; details: JQ1 vs DMSO
# Protocol: (§1) Cells and Cell Culture. Human […] K562 cells were obtained from ATCC and cultured in IMDM medium containing 10% FBS and 1% penicillin/streptomycin. pEF1α-FB-dCas9 and pEF1α-BirA-V5 vectors were co-transfected into K562 cells by nucleofection using the ECM 830 Square Wave Electroporation System (Harvard Apparatus, Holliston, Mass.). Cells were plated in 96-well plates and treated with 1 μg/ml of puromycin (Sigma) and 600 μg/ml of G418 (Sigma) 48-72 hour post-transfection. Single-cell-derived clones were isolated and examined by Western blot analysis to screen for FB-dCas9 and BirA-expressing stable clones. Human primary adult erythroid progenitor cells were generated ex vivo from CD34+ HSPCs as previously described (Huang et al., 2016). Primary HSPCs from both sexes were used in this study. […] Mouse male embryonic stem cells (ESCs) were cultured on primary embryonic fibroblasts and differentiated to embryoid bodies (EBs) by LIF withdrawal for 8 days. All cultures were incubated at 37° C. in 5% CO2. All cell lines were tested for mycoplasma contamination. […]
# RNA-seq and qRT-PCR Analysis. […] Sequencing reads from all RNA-seq experiments were aligned to human (hg19) reference genome by TopHat v2.0.13 (Trapnell et al., 2009) with the parameters: --solexaquals --no-novel-juncs. Quantitative RT-PCR (qRT-PCR) was performed using the iQ SYBR Green Supermix (Bio-Rad).
# human erythroid cells = assay: Erythroid maturation by CD71/CD235a flow cytometry and cytospin after JQ1; type: cell-based; details: JQ1 vs DMSO, cell surface markers CD71 and CD235a, cytospin
# Protocol: as §1, with “CO2.” for “CO2. All cell lines were tested for mycoplasma contamination.”
# Flow Cytometry. Human erythroid cell differentiation was analyzed by flow cytometry using FACSCanto. […] The cells were analyzed for expression of cell surface receptors with antibodies specific for CD71 and CD235a conjugated to phycoerythrin (PE) and fluorescein isothiocyanate (FITC), respectively. Data were analyzed using FlowJo software (Ashland, Oreg.). […]
compound,measurement,setting,value
Cc1sc2c(c1C)C(c1ccc(Cl)cc1)=N[C@@H](CC(=O)OC(C)(C)C)c1nnc(C)n1-2 [JQ1],β-globin mRNAs,[1],significant downregulation; also recorded: significantly decreased
same,erythroid differentiation,human erythroid cells,without apparent effects
